Laboratory results from patent US9708370B2, “Azapeptides as CD36 binding compounds” (VALORISATION-RECHERCHE, LIMITED PARTNERSHIP, priority 2007, dated 2017).
Starred links: 1 amine or outer side, 2 acyl side, 3 side chain; linkers in the order of their positions; H or OH if unused. Non-standard residues stand in square brackets, D forms with d. Residues, ends and D or L forms follow the SMILES beside them. azaLeu = CC(C)CN(N[*:1])C(=O)[*:2]

How the values were obtained:
CD36 = CD36 (Rattus norvegicus (Rat), UniProt Q07969); assay: CD36 receptor covalent photolabelling binding assay, competition with [125I]Tyr-Bpa-Ala-hexarelin on rat cardiac membranes
Chain of CD36 (Q07969 whole entry): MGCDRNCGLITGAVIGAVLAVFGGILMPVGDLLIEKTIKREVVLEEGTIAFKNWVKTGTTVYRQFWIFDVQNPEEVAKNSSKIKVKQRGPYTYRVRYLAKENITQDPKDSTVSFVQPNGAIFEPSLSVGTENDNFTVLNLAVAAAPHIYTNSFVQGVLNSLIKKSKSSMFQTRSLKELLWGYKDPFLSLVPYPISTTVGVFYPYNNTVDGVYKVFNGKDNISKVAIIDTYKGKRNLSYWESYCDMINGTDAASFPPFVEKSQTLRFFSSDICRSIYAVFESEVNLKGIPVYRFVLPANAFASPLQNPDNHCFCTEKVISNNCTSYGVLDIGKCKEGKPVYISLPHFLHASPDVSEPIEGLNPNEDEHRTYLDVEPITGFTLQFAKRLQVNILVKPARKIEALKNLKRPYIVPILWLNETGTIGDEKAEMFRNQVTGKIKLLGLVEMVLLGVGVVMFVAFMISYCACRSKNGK
Procedure: The hearts from Sprague Dawley rats (300 g-325 g) from Charles River, used as a source of cardiac membranes, were prepared as follows: the heart was washed with ice-cold saline, and fatty and connective tissue was removed. The tissue was cut into small pieces with scissors and placed in a Sorvall centrifuge tube containing 5 ml/g of fresh tissue of Buffer A (10 mM NaHCO3, 5 mM NaN3, 10 μM Pefabloc, 0.1 μM Aprotinin, 1 μM Pepstatin A, 1 μM Leupeptin, pH 7.0). The suspension was homogenized with a Polytron at low speed, 3×15 sec. The homogenate was centrifuged at 8 700×g for 20 min and the supernatant was put on ice. The pellet was resuspended and homogenized with a Glass-teflon Potter by 5 strokes. The homogenate was centrifuged at 8 700×g for 10 min and this supernatant was combined with the first supernatant. The supernatant fluid was centrifuged at 35 000×g for 20 min, yielding a second pellet fraction that was suspended thoroughly in a glass homogenizer with a Teflon pestle in 20 ml/g of fresh tissue of Buffer B (20 mM Tris-maleate, 0.6M KCl, pH 6.8). The resulting suspension was centrifuged again at 35 000×g for 60 min. The third pellet fraction was resuspended thoroughly in a glass homogenizer with a Teflon pestle in 20 ml/g of fresh tissue of Buffer C (10 mM Tris/HCl buffer pH 7.4) followed with another centrifugation at 35 000×g for 60 min. The harvested precipitate was then suspended in a small volume (1-2 ml/g of fresh tissue) of 50 mM Tris/HCl buffer pH 7.4) containing 2 mM EGTA. The resulting membrane preparation was frozen at −80° C. Protein concentration was determined with bicinchoninic acid (BCA) method, using BSA as standard.
The iodination procedure was performed in the darkness. […] The reaction was started by adding 5 ul (3 nmol) of H2O2. The incubation was carried out at 22° C. for 5 min. The addition of H2O2 was repeated twice with 5 min incubation each time. The reaction was stopped with the addition of 1.4 ml of 0.1% TFA. The iodinated peptide was purified on a reverse-phase Vydac C18 column with a 60 min linear gradient (1 ml/min) from 20% to 50% acetonitrile (90%) in 0.1% TFA (10%).
Nonspecific binding was defined as binding not displaced by 50 μM corresponding peptide. All peptide containing solutions were diluted in Buffer B. Buffer A and B were degassed under vacuum, and used in capped tubes in order to minimize lipid peroxydation. Before the incubation period, all tubes were put under a low flow of nitrogen. All material was kept on ice and the binding assay was performed in darkness. After an incubation period of 60 min at 22° C. […] After centrifugation at 12 000×g for 15 minutes, the pellets were resuspended in 150 μl of sample buffer (62 mM Tris-HCl, pH 6.8, 2% SDS, 10% glycerol, 15% 2-mercapto-ethanol, and 0.05% bromophenol blue), and boiled for 5 min prior to being subjected to electrophoresis. Proteins (200 μg/100 μl) were separated on 7.5% SDS-PAGE (45 V overnight). The gels resulting from SDS/PAGE were fixed, colored in Coomassie Brilliant Blue R-250, dried, exposed to a storage phosphor intensifying screen (Amersham Biosciences), and analysed by using a Typhoon PhosphorImager (Amersham Biosciences) and ImageQuant 5.0 software to establish competition curves. Protein bands were quantified by densitometry. The covalent binding signal of 87 kDa was analyzed by densitometry using Typhoon Phospholmager™ (Typhoon, Amersham Biosciences) and ImageQuant 5.0® software to set competition curves.
Specific binding activities were defined as the ratio of the density of the protein band to that of a non-specific band. Results are expressed as the percentage of the density of the […] to that of the total binding band.

human GHS-R1a = human GHS-R1a (Homo sapiens (Human), UniProt Q92847); assay: GHS-R1a binding assay, competition with 125I-ghrelin on membranes of LLC-PK1 cells expressing human GHS-R1a; conditions: Table 4; LLCPK-1 membranes overexpressing GHS-R1a; radioiodinated (1-28) rat ghrelin as tracer; read-out: EC50 (text: IC50 values from competition curves in GHS-R1a radioreceptor assay)
Chain of human GHS-R1a (Q92847 whole entry): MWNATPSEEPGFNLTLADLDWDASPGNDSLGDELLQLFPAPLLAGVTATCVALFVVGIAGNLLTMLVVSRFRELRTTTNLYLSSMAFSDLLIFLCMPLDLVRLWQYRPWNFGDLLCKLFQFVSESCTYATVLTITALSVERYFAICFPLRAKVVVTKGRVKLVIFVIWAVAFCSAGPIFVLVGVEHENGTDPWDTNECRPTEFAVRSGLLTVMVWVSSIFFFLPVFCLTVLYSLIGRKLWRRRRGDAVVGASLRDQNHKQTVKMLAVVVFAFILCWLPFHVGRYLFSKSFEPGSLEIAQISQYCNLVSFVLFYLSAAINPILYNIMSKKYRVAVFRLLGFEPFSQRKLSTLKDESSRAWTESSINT

[1] = tested on: vascular sprouting of aortic endothelium (aortic rings); assay: Inhibition of microvascular sprouting from Matrigel-embedded aortic explants; assay type: cell-based, mice; conditions: preliminary data; compared with GHRP-6
Excerpt: FIG. 1 illustrates disruption of vascular sprouting of aortic endothelium by azapeptide compound DBG178. Sprouting aortic endothelium (Von Willebrand factor positive) expressing CD36 is shown in the upper row of FIG. 1a. Vascular sprouting of aortic rings from C57BL/6 and CD36 null mice in the presence of DBG 178 at 10^−7M is shown in the lower row of FIG. 1a. Histograms of microvascular sprouts areas (mean±s.e.m) from aortic explants of C57BL/6 and CD36 null mice exposed to DBG concentrations from 10^−8 to 10^−6 M p<0.01 compared with control (Ctl) is shown in FIG. 1b.
Aortas were excised from 10-week-old male C57/Bl6+/+ and CD36−/− mice of C57/Bl6 background. The fibroadipose tissue was removed and aortas were sectioned into 2-mm-long cross-sections. The +/+ and −/− rings were covered by 50 μl of Matrigel and cultured for 4 days in EGM-2 medium (Clonetics Corp.). Explants were then exposed to vehicle alone or in presence of an azapeptide prototype DBG178 at the indicated concentrations (10^−8 to 10^−6 M) from day 4 to day 6 of culture in EGM-2 medium. Pictures of each individual explant were taken at day 4 and day 6 and EC growth was measured as the surface covered at day 6 minus the surface covered at day 4 Data were subject to analysis of variance (ANOVA) followed by Dunnet's post test to test for differences among groups. Outgrowing cells were characterized by double-labelling with monoclonal vWF antibody (1:100, Dako) and polyclonal CD36 (1:100, Santa Cruz) after acetone fixation using their respective alexa coupled secondary antibodies.

IC50 (CD36; Table 3, rat cardiac membranes, [125I]Tyr-Bpa-Ala-hexarelin as radioligand, read-out: IC50, binding affinity of aza peptide derivatives towards CD36): 2890 nM
IC50 (human GHS-R1a): 1200 nM
Compound: CC(C)CN(NC(=O)[C@@H](Cc1c[nH]c2ccccc12)NC(=O)[C@@H](N)Cc1cnc[nH]1)C(=O)N[C@@H](Cc1c[nH]c2ccccc12)C(=O)N[C@H](Cc1ccccc1)C(=O)N[C@@H](CCCCN)C(N)=O [DBG201-A, His-D-Trp-azaLeu-Trp-D-Phe-Lys-NH2] (H-H[dW][azaLeu]W[dF]K-NH2)
binding activity/affinity at CD36 in words (CD36; compared with parent peptide GHRP-6 or hexarelin): retained significant activity similar to the parent peptide
ex vivo inhibition of neovascularization in aortic rings [1]: most potent inhibitory effect
